Test results reported in patent publication US5891895A, “Hydroxypyridine derivatives their production and use” (Takeda Chemical Industries, Ltd., priority 1996, dated 1999).

Assays:
rat aorta preparations [1] = assay: Vasorelaxant effect on rat aorta preparations: contractions induced by tetraethyl ammonium chloride (TEA) and barium chloride (BaCl2); assay type: cell-based, Male Wistar rats; details: TEA (30-45 mM) and BaCl2 (0.3 mM), read-out: constriction inhibitory ratio
Description: (§1) Vasorelaxant effect on rat aorta preparations
Effects on contractions induced by tetraethyl ammonium chloride (TEA) and barium chloride (BaCl2)
(§2) Method: Male Wistar rats (10 to 13 weeks old) were used. After exsanguination, the aorta was isolated. Aortic rings (5 mm long) were prepared and then suspended in a bath filled with oxygenated (95% O2 -5% CO2) Krebs solution (36° C.). One end of each ring preparation was fixed and the other end was connected to a tension transducer (Nihon Kohden), and tension of the ring preparation was measured. After an equilibration period of one hour, TEA (30-45 mM) and BaCl2 (0.3 mM) were added in the bath to produce vasoconstriction. After the contractions reached a steady state (after about 15 min.), each test compound was added and its relaxant effect was investigated.

rat aorta preparations [2] = assay: Vasorelaxant effect on rat aorta preparations: constriction induced by potassium chloride (KCl); assay type: cell-based, Male Wistar rats; details: KCl (80 mM), read-out: constriction inhibitory ratio
Description: as §2, §1
Effect on constriction induced by potassium chloride (KCl)
Method: This experiment was performed using KCl (80 mM) instead of TEA and BaCl2 used in Experimental Example 1. Apart from this, the procedures were substantially the same as in Experimental Example 1.

coronary blood flow = assay: Coronary blood flow-increasing effect in anesthetized dogs (administration into the coronary artery); assay type: in vivo; details: 30 μg/dog into the coronary artery, anesthetized beagle dogs
Description: Coronary blood flow-increasing effect in anesthetized dogs (administration into the coronary artery)
Method: After beagle dogs (10 to 12 kg) were anesthetized with pentobarbital, the chest was opened under artificial respiration. A bypass fitted with an electromagnetic flowmeter (Nihon Kohden) was prepared between the left coronary artery and the left carotid artery, and the coronary blood flow was measured. Each test compound was dissolved in 50% polyethylene glycol in physiological saline, 50% DMF in physiological saline or DMF for administration (30 μg/dog) into the coronary artery through the bypass.
Results: The greatest percentage change (% of basal flow) and duration (expressed as half-time (T1/2) in which the effect is reduced to half) are shown in Table 14.

[3] = test system: spontaneously hypertensive rats (SHR); assay: Antihypertensive effect in rats (SHR); assay type: in vivo; details: 0.3 mg/kg orally
Description: (§3) Antihypertensive effect in rats
(§4) Method: 23 to 27-week-old spontaneously hypertensive rats (SHR) or normotensive rats (Wistar-Kyoto rats (WKY)) were anesthetized with pentobarbital (60 mg/kg, i.p.). A polyethylene catheter filled with physiological saline containing 20% heparin was inserted into the left femoral artery and left in place. The other end of the catheter was tunneled subcutaneously to the back and fixed there. After one night, the animals were used in the experiment in the fasting state. Blood pressure was recorded on an ink-writing recorder through the arterial catheter via a pressure transducer. Blood pressure was estimated from flood pressure waves recorded on the recorder. After the blood pressure was stabilized, the test compounds (vehicle (0.5% methylcellulose, […]) or Compound 16 (0.3 mg/kg)) were administered orally.
(§5) Results: The changes in blood pressure and heart rate after administration of the test compounds are given as % of pretreatment basal values (percentage changes) in FIGS. 1 and 2. All values are presented as means±standard error.

[4] = test system: normotensive rats (Wistar-Kyoto rats (WKY)); assay: Antihypertensive effect in rats (WKY); assay type: in vivo; details: 0.3 mg/kg orally
Description: as §3, §4, §5

Row | Compound | inhibition at 0.1 µM (rat aorta preparations [1]) | inhibition at 0.1 µM (rat aorta preparations [2]) | duration (T1/2), half-time in which the effect is reduced to half (coronary blood flow) | greatest percentage change (coronary blood flow) | duration of antihypertensive effect [3] | effect on heart rate [3] | onset of antihypertensive effect after administration [3] | greatest change in blood pressure (antihypertensive effect) ([3]; % of pretreatment basal values) | effect on blood pressure [4] | effect on heart rate [4] | inhibition at 0.3 µM (rat aorta preparations [1]) | inhibition at 0.3 µM (rat aorta preparations [2]) | inhibition at 1 µM (rat aorta preparations [1]) | inhibition at 1 µM (rat aorta preparations [2])
1 | CC(C)(C)O/N=C(/c1ccc(F)c(Br)c1)c1ncccc1O [Compound 16, (Z)-2-(3-bromo-α-t-butoxyimino-4-fluorobenzyl)-3-hydroxypyridine] | 87% | 4% | 43.5 min | 136 % of basal flow | long duration | little effect | 2 h | 18% | no effect | no effect |  |  |  | 
2 | CC(C)(C)O/N=C(/c1cccc(Br)c1)c1ncccc1O [Compound 1, (Z)-2-(3-bromo-α-t-butoxyiminobenzyl)-3-hydroxypyridine] | 57% | 0% | 6.7 min | 133 % of basal flow |  |  |  |  |  |  | 59% | 0% |  | 
3 | CC(C)(C)O/N=C(/c1cccc([N+](=O)[O-])c1)c1ncccc1O [Compound 23, (Z)-2-[α-(t-butoxyimino)-3-nitrobenzyl]-3-hydroxypyridine] | 4% |  | 5.3 min | 134 % of basal flow |  |  |  |  |  |  | 56% | 0% | 76% | 0%
4 | CC(C)(C)O/N=C(/c1cccc(C(F)(F)F)c1)c1ncccc1O [Compound 21, (Z)-2-[α-(t-butoxyimino)-3-trifluoromethylbenzyl]-3-hydroxypyridine] |  |  |  |  |  |  |  |  |  |  | 45% | 1% | 100% | 8%
5 | CC(C)(C)O/N=C(/c1ccc(Cl)c(Cl)c1)c1c(O)ccc[n+]1[O-] [Compound 11, (Z)-2-[α-(t-butoxyimino)-3,4-dichlorobenzyl]-3-hydroxypyridine N-oxide] |  |  | 30.5 min | 66 % of basal flow |  |  |  |  |  |  | 49% |  | 63% | 0%
6 | CC(C)(C)N/N=C(\c1cccc(Br)c1)c1ncccc1O [Compound 27, (E)-2-(3-bromo-α-t-butylhydrazinobenzyl)-3-hydroxypyridine] | 25% | 0% | 74.6 min | 77 % of basal flow |  |  |  |  |  |  | 100% | 0% |  | 
7 | CC(C)(C)O/N=C(/c1ccc(Cl)cc1)c1c(O)ccc[n+]1[O-] [Compound 7, (Z)-2-[α-(t-butoxyimino)-4-chlorobenzyl]-3-hydroxypyridine N-oxide] |  |  | 18.6 min | 71 % of basal flow |  |  |  |  |  |  | 2% |  | 72% | 0%
8 | CC(C)(C)O/N=C(/c1cc(Cl)cc(Cl)c1)c1ncccc1O [Compound 13, (Z)-2-[α-(t-butoxyimino)-3,5-dichlorobenzyl]-3-hydroxypyridine] |  |  |  |  |  |  |  |  |  |  | 21% |  | 53% | 4%
9 | CC(C)(C)O/N=C(/c1cccc(Br)c1)c1c(O)ccc[n+]1[O-] [Compound 3, (Z)-2-(3-bromo-α-t-butoxyiminobenzyl)-3-hydroxypyridine 1-oxide] |  |  | 24.4 min | 155 % of basal flow |  |  |  |  |  |  | 47% | 0% | 97% | 2%
